Measurements from EPA's ToxValDB 9.5 (doi:10.2903/j.efsa.2018.5429).
Values after ≈ are worked out from the molar mass of the structure shown.

Legend:
Aphidius rhopalosiphi = experiment: LR50; higher = less toxic; details: not reported; mortality
Canidae = details: subchronic; duration: 90 days; oral; Dog Other; clinical signs
Tagia sp. = details: chronic/long-term; duration: 56 days; body weight
Lepomis macrochirus = details: acute; duration: 96 hours; mortality
Anas platyrhynchos = details: reproductive
Oncorhynchus mykiss = details: chronic/long-term; duration: 56 days; behavior
Daphnia magna = details: chronic/long-term; duration: 21 days; reproduction
Apis mellifera = details: acute, duration: 48 hours, mortality
Coturnix japonica = details: acute; oral; mortality
Hypoaspis aculeifer = details: acute; duration: 14 days
Rattus norvegicus = details: for NOAEL: reproduction developmental

Compound: CNC(=O)Oc1cc(C)c(SC)c(C)c1 [Methiocarb]
- LR50 (Aphidius rhopalosiphi): 8.5 g/ha
- NOAEL (Canidae): 0.25 mg/kg-day
- NOEC (Tagia sp.): 0.08 mg/kg
- LC50 (Lepomis macrochirus): 0.65 µg/mL (≈ 2.88 µM)
- NOAEL (Anas platyrhynchos): 4.51 mg/kg-day
- NOEC (Oncorhynchus mykiss): 0.05 mg/L
- NOEC (Daphnia magna): 0.0001 mg/L
- LD50 (Apis mellifera; dermal): 0.23 µg/piece
- LD50 (Apis mellifera; oral, unspecified): 0.08 µg/piece
- LD50 (Coturnix japonica): 5 mg/kg-day
- NOEC (Hypoaspis aculeifer): 10.1 mg/kg
- LD50 (Rattus norvegicus; acute, oral, mortality): < 50 mg/kg-day
- NOAEL (Rattus norvegicus; body weight): 4.3 mg/kg-day
- NOAEL (Rattus norvegicus; clinical signs): 0.5 mg/kg-day
